Results reported in PubChem BioAssay AID256 (DTP/NCI, 2004).
Several values for one entry are separate records, joined by “and”; a condition that tells them apart may be missing. Equal entries are not always repeated. Toxic doses and inconclusive results are not listed.

Tested on: CD2F1 mice, L1210 leukemia ip, survival T/C
Assay: NCI In Vivo Anticancer Drug Screen. Data for tumor model L1210 Leukemia (intraperitoneal) in CD2F1 (CDF1) mice
Settings: higher = longer survival
Summary of the method: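 Antitumor effect is scored in animals hosting a serially transplanted tumor. Values compare compound-dosed animals against vehicle-only controls as a simple quotient.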

[1] = endpoint: mean survival time, dose: 100.0 mg/kg/injection, schedule: Q04DX002 (ip), vehicle: saline with Tween-80
[2] = endpoint: mean survival time, dose: 100.0 mg/kg/injection, schedule: Q04DX003 (ip), vehicle: saline with Tween-80
[3] = endpoint: mean survival time, dose: 100.0 mg/kg/injection, schedule: Q01DX009 (ip), vehicle: saline with Tween-80
[4] = endpoint: mean survival time, dose: 200.0 mg/kg/injection, schedule: Q01DX009 (ip), vehicle: saline with Tween-80
[5] = endpoint: mean survival time, dose: 200.0 mg/kg/injection, schedule: Q04DX003 (ip), vehicle: saline with Tween-80
[6] = endpoint: mean survival time, dose: 400.0 mg/kg/injection, schedule: Q01DX009 (ip), vehicle: saline with Tween-80
[7] = endpoint: mean survival time, dose: 400.0 mg/kg/injection, schedule: Q04DX003 (ip), vehicle: saline with Tween-80
[8] = endpoint: mean survival time, dose: 100.0 mg/kg/injection, schedule: Q01DX009 (ip), vehicle: saline sonified
[9] = endpoint: mean survival time, dose: 200.0 mg/kg/injection, schedule: Q01DX009 (ip), vehicle: saline sonified
[10] = endpoint: mean survival time, dose: 400.0 mg/kg/injection, schedule: Q01DX009 (ip), vehicle: saline sonified

CC(C)C(C(N)=O)C(N)=O
T/C [1]: 100 % of control | T/C (endpoint: mean survival time, dose: 200.0 mg/kg/injection, schedule: Q04DX002 (ip), vehicle: saline with Tween-80): 100 % of control

CC[n+]1ccc(Cc2ccc([N+](=O)[O-])cc2)cc1
T/C (endpoint: mean survival time, dose: 100.0 mg/kg/injection, schedule: Q04DX003 (ip), vehicle: Klucel (hydroxypropylcellulose) (HPC)): 105 % of control

O=[N+]([O-])c1ccc(NCc2ccccc2)c([N+](=O)[O-])c1
T/C (endpoint: mean survival time, dose: 100.0 mg/kg/injection, schedule: Q04DX003 (ip), vehicle: gum acacia): 98 % of control | T/C (endpoint: mean survival time, dose: 200.0 mg/kg/injection, schedule: Q04DX003 (ip), vehicle: gum acacia): 106 % of control | T/C (endpoint: mean survival time, dose: 400.0 mg/kg/injection, schedule: Q04DX003 (ip), vehicle: gum acacia): 102 % of control

CC(NC1=C(Cl)C(=O)c2ccccc2C1=O)c1ccccc1 (stereo not drawn)
T/C (endpoint: mean survival time, dose: 25.0 mg/kg/injection, schedule: Q04DX003 (ip), vehicle: saline with Tween-80): 102 % of control | T/C (endpoint: mean survival time, dose: 50.0 mg/kg/injection, schedule: Q04DX003 (ip), vehicle: saline with Tween-80): 96 % of control | T/C [2]: 95 % of control

CC(C)NC(=O)c1ccc(N/N=[N+](/C)[O-])cc1
T/C (endpoint: mean survival time, dose: 6.25 mg/kg/injection, schedule: Q01DX005 (ip), vehicle: saline with Tween-80): 98 % of control | T/C (endpoint: mean survival time, dose: 12.5 mg/kg/injection, schedule: Q01DX005 (ip), vehicle: saline with Tween-80): 100 % of control | T/C (endpoint: mean survival time, dose: 25.0 mg/kg/injection, schedule: Q01DX005 (ip), vehicle: saline with Tween-80): 107 % of control | T/C (endpoint: mean survival time, dose: 50.0 mg/kg/injection, schedule: Q01DX005 (ip), vehicle: saline with Tween-80): 100 % of control | T/C (endpoint: mean survival time, dose: 100.0 mg/kg/injection, schedule: Q01DX005 (ip), vehicle: saline with Tween-80): 109 % of control | T/C [3]: 107 % of control | T/C [2]: 94 % of control | T/C [4]: 110 % of control | T/C [5]: 100 % of control | T/C [6]: 117 % of control | T/C [7]: 110 % of control

O=C(O)C(=O)O.[NH-]CC(O)CN(CC(O)CO)c1ccccc1.[Pt+2] (stereo not drawn)
T/C (endpoint: median survival time, dose: 10.0 mg/kg/injection, schedule: Q04DX003 (ip), vehicle: distilled water + Tween-80): 100 % of control | T/C (endpoint: median survival time, dose: 20.0 mg/kg/injection, schedule: Q04DX003 (ip), vehicle: distilled water + Tween-80): 98 % of control | T/C (endpoint: median survival time, dose: 40.0 mg/kg/injection, schedule: Q04DX003 (ip), vehicle: distilled water + Tween-80): 101 % of control | T/C (endpoint: median survival time, dose: 80.0 mg/kg/injection, schedule: Q04DX003 (ip), vehicle: distilled water + Tween-80): 102 % of control

CCCC(NC(=O)CN)C(=O)O (stereo not drawn)
T/C (endpoint: mean survival time, dose: 100.0 mg/kg/injection, schedule: Q04DX003 (ip), vehicle: saline): 100 % of control | T/C (endpoint: mean survival time, dose: 200.0 mg/kg/injection, schedule: Q04DX003 (ip), vehicle: saline): 97 % of control | T/C (endpoint: mean survival time, dose: 400.0 mg/kg/injection, schedule: Q04DX003 (ip), vehicle: saline): 102 % of control

Cc1cc(N(CCOS(C)(=O)=O)CCOS(C)(=O)=O)ccc1N=O
T/C (endpoint: mean survival time, dose: 0.25 mg/kg/injection, schedule: Q01DX015 (ip), vehicle: saline): 119 % of control | T/C (endpoint: mean survival time, dose: 0.5 mg/kg/injection, schedule: Q01DX015 (ip), vehicle: saline): 121 % of control | T/C (endpoint: mean survival time, dose: 1.0 mg/kg/injection, schedule: Q01DX010 (ip), vehicle: saline): 101 % of control | T/C (endpoint: mean survival time, dose: 1.0 mg/kg/injection, schedule: Q01DX015 (ip), vehicle: saline): 116 % of control | T/C (endpoint: mean survival time, dose: 2.0 mg/kg/injection, schedule: Q01DX015 (ip), vehicle: saline): 97 % of control

NC(=O)/C=C1\NC(=O)CS1
T/C [8]: 97 % of control | T/C [2]: 100 % of control | T/C [9]: 103 % of control | T/C [5]: 91 % of control | T/C [10]: 88 % of control | T/C [7]: 102 % of control

Nc1nc(N)c(CCCc2ccccc2)c(N)n1
T/C (endpoint: mean survival time, dose: 2.0 mg/kg/injection, schedule: Q04DX002 (ip), vehicle: Klucel (hydroxypropylcellulose) (HPC)): 104 % of control | T/C (endpoint: mean survival time, dose: 4.0 mg/kg/injection, schedule: Q04DX002 (ip), vehicle: Klucel (hydroxypropylcellulose) (HPC)): 101 % of control | T/C (endpoint: mean survival time, dose: 8.0 mg/kg/injection, schedule: Q04DX002 (ip), vehicle: Klucel (hydroxypropylcellulose) (HPC)): 109 % of control | T/C (endpoint: mean survival time, dose: 16.0 mg/kg/injection, schedule: Q04DX002 (ip), vehicle: Klucel (hydroxypropylcellulose) (HPC)): 98 % of control | T/C (endpoint: mean survival time, dose: 32.0 mg/kg/injection, schedule: Q04DX002 (ip), vehicle: Klucel (hydroxypropylcellulose) (HPC)): 98 % of control | T/C (endpoint: mean survival time, dose: 64.0 mg/kg/injection, schedule: Q04DX002 (ip), vehicle: Klucel (hydroxypropylcellulose) (HPC)): 98 % of control

[Cl][Pt+2][Cl].[NH-]c1ccc(F)cc1F.[NH-]c1ccc(F)cc1F
T/C (endpoint: mean survival time, dose: 12.5 mg/kg/injection, schedule: Q04DX003 (ip), vehicle: distilled water + Tween-80): 114 % of control and 104 % of control and 110 % of control | T/C (endpoint: mean survival time, dose: 25.0 mg/kg/injection, schedule: Q04DX003 (ip), vehicle: distilled water + Tween-80): 115 % of control and 117 % of control and 96 % of control | T/C (endpoint: mean survival time, dose: 50.0 mg/kg/injection, schedule: Q04DX003 (ip), vehicle: distilled water + Tween-80): 116 % of control and 105 % of control | T/C (endpoint: mean survival time, dose: 100.0 mg/kg/injection, schedule: Q04DX003 (ip), vehicle: distilled water + Tween-80): 122 % of control and 88 % of control and 94 % of control

CCOC(=O)C(Cl)c1ccc(OC)cc1 (stereo not drawn)
T/C (endpoint: mean survival time, dose: 100.0 mg/kg/injection, schedule: Q04DX003 (ip), vehicle: other): 96 % of control | T/C (endpoint: mean survival time, dose: 200.0 mg/kg/injection, schedule: Q04DX003 (ip), vehicle: other): 97 % of control | T/C (endpoint: mean survival time, dose: 400.0 mg/kg/injection, schedule: Q04DX003 (ip), vehicle: other): 96 % of control

O=C(O)/C=C/C(=O)NCCc1c[nH]c2ccccc12
T/C [3]: 98 % of control | T/C [2]: 93 % of control | T/C [4]: 95 % of control | T/C [5]: 95 % of control | T/C [6]: 95 % of control | T/C [7]: 95 % of control

Cc1ccc(NC(=O)Nc2ccccc2C(N)=O)cc1
T/C [8]: 97 % of control | T/C [9]: 98 % of control | T/C [10]: 100 % of control

CN(C)C=NC1=NN(C)c2ncnc3c2c1cn3C1OC(CO)C(O)C1O (stereo not drawn)
T/C (endpoint: mean survival time, dose: 12.5 mg/kg/injection, schedule: Q01DX009 (ip), vehicle: water): 101 % of control | T/C (endpoint: mean survival time, dose: 25.0 mg/kg/injection, schedule: Q01DX009 (ip), vehicle: water): 95 % of control | T/C (endpoint: mean survival time, dose: 50.0 mg/kg/injection, schedule: Q01DX009 (ip), vehicle: water): 95 % of control | T/C (endpoint: mean survival time, dose: 100.0 mg/kg/injection, schedule: Q01DX009 (ip), vehicle: other): 108 % of control | T/C (endpoint: mean survival time, dose: 100.0 mg/kg/injection, schedule: Q01DX009 (ip), vehicle: water): 103 % of control | T/C (endpoint: mean survival time, dose: 200.0 mg/kg/injection, schedule: Q01DX009 (ip), vehicle: other): 104 % of control | T/C (endpoint: mean survival time, dose: 200.0 mg/kg/injection, schedule: Q01DX009 (ip), vehicle: water): 110 % of control | T/C (endpoint: mean survival time, dose: 400.0 mg/kg/injection, schedule: Q01DX009 (ip), vehicle: other): 115 % of control

NC(=S)c1cn(C2OC(CO)C(O)C2O)c2ncnc(N)c12 (stereo not drawn)
T/C (endpoint: median survival time, dose: 2.5 mg/kg/injection, schedule: Q01DX009 (ip), vehicle: suspension in saline): 158 % of control | T/C (endpoint: median survival time, dose: 5.0 mg/kg/injection, schedule: Q01DX009 (ip), vehicle: suspension in saline): 175 % of control | T/C (endpoint: median survival time, dose: 10.0 mg/kg/injection, schedule: Q01DX009 (ip), vehicle: suspension in saline): 91 % of control

O/N=C(\c1ccccc1)C1C(/C(=N/O)c2ccccc2)C1c1ccccc1 (stereo not drawn)
T/C (endpoint: mean survival time, dose: 50.0 mg/kg/injection, schedule: Q04DX002 (ip), vehicle: saline with Tween-80): 90 % of control | T/C [1]: 87 % of control
